Reference: PubChem BioAssay AID248 (DTP/NCI, 2004)
“And” between values parts separate entries of the source, which are not always exact repeats. Equal entries are not always repeated. Toxic doses and inconclusive results are not listed.

System: L1210 leukemia ip in BDF1 mice, survival T/C
Assay: NCI In Vivo Anticancer Drug Screen. Data for tumor model L1210 Leukemia (intraperitoneal) in B6D2F1 (BDF1) mice
Settings: endpoint: mean survival time, higher = longer survival
Outline: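 Tumor cells were implanted, animals were treated, and survival was followed. The result divides the treated measurement by the vehicle-control measurement.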

[1] = dose: 50.0 mg/kg/injection, schedule: Q01DX001 (ip), vehicle: saline
[2] = dose: 100.0 mg/kg/injection, schedule: Q01DX001 (ip), vehicle: saline
[3] = dose: 100.0 mg/kg/injection, schedule: Q01DX009 (ip), vehicle: saline
[4] = dose: 100.0 mg/kg/injection, schedule: Q04DX003 (ip), vehicle: saline
[5] = dose: 200.0 mg/kg/injection, schedule: Q01DX001 (ip), vehicle: saline
[6] = dose: 200.0 mg/kg/injection, schedule: Q01DX009 (ip), vehicle: saline
[7] = dose: 200.0 mg/kg/injection, schedule: Q04DX003 (ip), vehicle: saline
[8] = dose: 400.0 mg/kg/injection, schedule: Q01DX001 (ip), vehicle: saline
[9] = dose: 400.0 mg/kg/injection, schedule: Q01DX009 (ip), vehicle: saline
[10] = dose: 100.0 mg/kg/injection, schedule: Q01DX009 (ip), vehicle: Klucel (hydroxypropylcellulose) (HPC)
[11] = dose: 200.0 mg/kg/injection, schedule: Q01DX009 (ip), vehicle: Klucel (hydroxypropylcellulose) (HPC)
[12] = dose: 400.0 mg/kg/injection, schedule: Q01DX009 (ip), vehicle: Klucel (hydroxypropylcellulose) (HPC)
[13] = dose: 100.0 mg/kg/injection, schedule: Q01DX001 (ip), vehicle: Klucel (hydroxypropylcellulose) (HPC)
[14] = dose: 200.0 mg/kg/injection, schedule: Q01DX001 (ip), vehicle: Klucel (hydroxypropylcellulose) (HPC)
[15] = dose: 400.0 mg/kg/injection, schedule: Q01DX001 (ip), vehicle: Klucel (hydroxypropylcellulose) (HPC)
[16] = dose: 50.0 mg/kg/injection, schedule: Q01DX001 (ip), vehicle: carboxymethylcellulose (CMC)
[17] = dose: 100.0 mg/kg/injection, schedule: Q01DX001 (ip), vehicle: carboxymethylcellulose (CMC)
[18] = dose: 200.0 mg/kg/injection, schedule: Q01DX001 (ip), vehicle: carboxymethylcellulose (CMC)
[19] = dose: 400.0 mg/kg/injection, schedule: Q01DX001 (ip), vehicle: carboxymethylcellulose (CMC)
[20] = dose: 100.0 mg/kg/injection, schedule: Q04DX003 (ip), vehicle: Klucel (hydroxypropylcellulose) (HPC)
[21] = dose: 200.0 mg/kg/injection, schedule: Q04DX003 (ip), vehicle: Klucel (hydroxypropylcellulose) (HPC)
[22] = dose: 400.0 mg/kg/injection, schedule: Q04DX003 (ip), vehicle: Klucel (hydroxypropylcellulose) (HPC)
[23] = dose: 50.0 mg/kg/injection, schedule: Q01DX009 (ip), vehicle: saline

## COC1=C(Nc2cccc(C)c2C)C(=O)C(OC)=C(Nc2cccc(C)c2C)C1=O
[1]
  T/C: 97 % of control
[2]
  T/C: 103 % of control
[3]
  T/C: 111 % of control
[4]
  T/C: 98 % of control
[5]
  T/C: 115 % of control
[6]
  T/C: 96 % of control
[7]
  T/C: 91 % of control
[8]
  T/C: 103 % of control
[9]
  T/C: 90 % of control
dose: 400.0 mg/kg/injection, schedule: Q04DX003 (ip), vehicle: saline
  T/C: 91 % of control

## OC(CI)C(O)CI (configuration not stated)
dose: 75.0 mg/kg/injection, schedule: Q01DX001 (ip), vehicle: other
  T/C: 104 % of control
dose: 150.0 mg/kg/injection, schedule: Q01DX001 (ip), vehicle: other
  T/C: 106 % of control and 86 % of control
dose: 300.0 mg/kg/injection, schedule: Q01DX001 (ip), vehicle: other
  T/C: 101 % of control

## CCOc1ccccc1NC(=O)c1ccccc1Cl
[10]
  T/C: 102 % of control
[11]
  T/C: 108 % of control
[12]
  T/C: 93 % of control

## CCC(=O)c1ccc(NC(N)=S)cc1
dose: 20.0 mg/kg/injection, schedule: Q01DX005 (ip), vehicle: saline with Tween-80
  T/C: 94 % of control
dose: 40.0 mg/kg/injection, schedule: Q01DX005 (ip), vehicle: saline with Tween-80
  T/C: 95 % of control
dose: 80.0 mg/kg/injection, schedule: Q01DX005 (ip), vehicle: saline with Tween-80
  T/C: 94 % of control
dose: 160.0 mg/kg/injection, schedule: Q01DX005 (ip), vehicle: saline with Tween-80
  T/C: 101 % of control

## COc1ccc2c(C(=O)O)c(C(=O)c3ccccc3)ccc2c1OC
dose: 100.0 mg/kg/injection, schedule: Q01DX001 (ip), vehicle: gum acacia
  T/C: 98 % of control
dose: 200.0 mg/kg/injection, schedule: Q01DX001 (ip), vehicle: gum acacia
  T/C: 98 % of control
dose: 400.0 mg/kg/injection, schedule: Q01DX001 (ip), vehicle: gum acacia
  T/C: 94 % of control

## COCCOC
dose: 86.0 mg/kg/injection, schedule: Q01DX Z (ip), vehicle: saline
  T/C: 103 % of control
dose: 100.0 mg/kg/injection, schedule: Q04DX003 (ip), vehicle: acetone
  T/C: 107 % of control
dose: 125.0 mg/kg/injection, schedule: Q01DX Z (ip), vehicle: saline
  T/C: 106 % of control
dose: 130.0 mg/kg/injection, schedule: Q01DX Z (ip), vehicle: saline
  T/C: 106 % of control
dose: 200.0 mg/kg/injection, schedule: Q04DX003 (ip), vehicle: acetone
  T/C: 102 % of control
dose: 250.0 mg/kg/injection, schedule: Q01DX Z (ip), vehicle: saline
  T/C: 113 % of control
dose: 400.0 mg/kg/injection, schedule: Q04DX003 (ip), vehicle: acetone
  T/C: 102 % of control
dose: 450.0 mg/kg/injection, schedule: Q01DX Z (ip), vehicle: saline
  T/C: 154 % of control
dose: 500.0 mg/kg/injection, schedule: Q01DX Z (ip), vehicle: saline
  T/C: 116 % of control
dose: 675.0 mg/kg/injection, schedule: Q01DX Z (ip), vehicle: saline
  T/C: 150 % of control and 160 % of control
dose: 1500.0 mg/kg/injection, schedule: Q01DX Z (ip), vehicle: saline
  T/C: 96 % of control

## CC1(C)OC(C)(C)C1(O)C(=O)O
[2]
  T/C: 97 % of control
[5]
  T/C: 101 % of control
[8]
  T/C: 105 % of control

## CC(=S)NC(=O)Nc1cccc2ccccc12
[13]
  T/C: 88 % of control
[14]
  T/C: 91 % of control

## CC(C)(C)NO
[13]
  T/C: 113 % of control
[10]
  T/C: 108 % of control
[14]
  T/C: 101 % of control
[11]
  T/C: 103 % of control
[15]
  T/C: 98 % of control
[12]
  T/C: 101 % of control

## COc1cc(/C=C2\SC(=O)NC2=O)ccc1O
dose: 12.5 mg/kg/injection, schedule: Q01DX009 (ip), vehicle: saline with Tween-80
  T/C: 106 % of control
dose: 25.0 mg/kg/injection, schedule: Q01DX009 (ip), vehicle: saline with Tween-80
  T/C: 101 % of control
dose: 150.0 mg/kg/injection, schedule: Q01DX009 (ip), vehicle: saline with Tween-80
  T/C: 101 % of control

## Cc1ccccc1[As](c1ccccc1C)c1ccccc1C
dose: 100.0 mg/kg/injection, schedule: Q04DX003 (ip), vehicle: saline with Tween-80
  T/C: 87 % of control

## Cc1cccc(NC(=O)C2CCCCC2C(=O)O)c1C (configuration not stated)
dose: 100.0 mg/kg/injection, schedule: Q04DX002 (ip), vehicle: Klucel (hydroxypropylcellulose) (HPC)
  T/C: 100 % of control
dose: 200.0 mg/kg/injection, schedule: Q04DX002 (ip), vehicle: Klucel (hydroxypropylcellulose) (HPC)
  T/C: 107 % of control
dose: 400.0 mg/kg/injection, schedule: Q04DX002 (ip), vehicle: Klucel (hydroxypropylcellulose) (HPC)
  T/C: 92 % of control

## NC1=NC(c2ccccc2)C2=C(N1)C(=O)N(Cc1ccccc1)C2 (configuration not stated)
[16]
  T/C: 98 % of control
[17]
  T/C: 101 % of control
[18]
  T/C: 98 % of control
[19]
  T/C: 95 % of control

## COc1ccc(CNCCC(=O)O)cc1OC
[16]
  T/C: 107 % of control
[17]
  T/C: 100 % of control
[18]
  T/C: 105 % of control
[19]
  T/C: 105 % of control

## CCC1(O)C(=O)OCc2c1c(Br)c(-c1ccccc1)n(C)c2=O (configuration not stated)
dose: 25.0 mg/kg/injection, schedule: Q01DX001 (ip), vehicle: saline with Tween-80
  T/C: 110 % of control
dose: 50.0 mg/kg/injection, schedule: Q01DX001 (ip), vehicle: saline with Tween-80
  T/C: 102 % of control
dose: 200.0 mg/kg/injection, schedule: Q01DX001 (ip), vehicle: saline with Tween-80
  T/C: 121 % of control

## Fc1ccc(/C=C2/c3cc(Cl)ccc3-c3c(Cl)cc(Cl)cc32)cc1
[13]
  T/C: 96 % of control
[10]
  T/C: 98 % of control
[20]
  T/C: 98 % of control
[14]
  T/C: 90 % of control
[11]
  T/C: 104 % of control
[21]
  T/C: 90 % of control
[15]
  T/C: 89 % of control
[12]
  T/C: 114 % of control
[22]
  T/C: 95 % of control

## S=c1cc(-c2ccc(Cl)cc2)ss1
[23]
  T/C: 93 % of control
[3]
  T/C: 93 % of control and 90 % of control
[4]
  T/C: 92 % of control
[6]
  T/C: 95 % of control and 90 % of control
[7]
  T/C: 100 % of control
dose: 300.0 mg/kg/injection, schedule: Q01DX009 (ip), vehicle: saline
  T/C: 95 % of control
[9]
  T/C: 95 % of control

## CCN(CC)CCNc1ccc(N=Nc2cnc3ccccc3c2)c2ccccc12
dose: 1.12 mg/kg/injection, schedule: Q01DX009 (ip), vehicle: other
  T/C: 98 % of control
dose: 2.25 mg/kg/injection, schedule: Q01DX009 (ip), vehicle: other
  T/C: 92 % of control
dose: 4.5 mg/kg/injection, schedule: Q01DX009 (ip), vehicle: other
  T/C: 93 % of control
dose: 9.0 mg/kg/injection, schedule: Q01DX009 (ip), vehicle: other
  T/C: 97 % of control
dose: 100.0 mg/kg/injection, schedule: Q01DX001 (ip), vehicle: other
  T/C: 91 % of control
dose: 200.0 mg/kg/injection, schedule: Q01DX001 (ip), vehicle: other
  T/C: 91 % of control
dose: 400.0 mg/kg/injection, schedule: Q01DX001 (ip), vehicle: other
  T/C: 97 % of control

## CCOP(=O)(OCC)OCc1cnc(SC)nc1N
[1]
  T/C: 99 % of control
[2]
  T/C: 108 % of control

## O=C(O)/C=C\Cl
dose: 25.0 mg/kg/injection, schedule: Q01DX009 (ip), vehicle: saline
  T/C: 104 % of control
[23]
  T/C: 98 % of control
[3]
  T/C: 96 % of control
dose: 100.0 mg/kg/injection, schedule: Q04DX002 (ip), vehicle: saline
  T/C: 100 % of control and 94 % of control
dose: 200.0 mg/kg/injection, schedule: Q04DX002 (ip), vehicle: saline
  T/C: 93 % of control and 105 % of control
dose: 400.0 mg/kg/injection, schedule: Q04DX002 (ip), vehicle: saline
  T/C: 102 % of control

## O=C(c1ccccc1)C1C(C(=O)c2ccccc2)N1C1CCCCC1 (configuration not stated)
[20]
  T/C: 91 % of control
[21]
  T/C: 91 % of control
[22]
  T/C: 96 % of control
